“And” between values parts separate entries of the source, which are not always exact repeats. Equal values may be shown once.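 Cells were grown in 96-well plates and exposed to each compound for 48 hours at five concentrations; endpoints were interpolated linearly between bracketing concentrations, or set to the highest concentration if not reached. Here, GI50 denotes the concentration required for 50% inhibition of growth. Definition used: TGI = concentration required for complete inhibition of growth.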
Experiments:
Assay in all cases: NCI tumour cell line growth inhibition, 48 h
XF 498 CNS = system: XF 498 CNS
KM20L2 colon = system: KM20L2 colon
DMS 114 small cell lung = system: DMS 114 small cell lung
OVCAR-5 ovarian = system: OVCAR-5 ovarian
OVCAR-8 ovarian = system: OVCAR-8 ovarian
K-562 leukemia = system: K-562 leukemia
TK-10 renal = system: TK-10 renal
CAKI-1 renal = system: CAKI-1 renal
RXF 393 renal = system: RXF 393 renal
HCT-15 colon = system: HCT-15 colon
SK-MEL-5 melanoma = system: SK-MEL-5 melanoma
786-0 renal = system: 786-0 renal
KM12 colon = system: KM12 colon
SNB-19 CNS = system: SNB-19 CNS
SNB-75 CNS = system: SNB-75 CNS
RPMI-8226 leukemia = system: RPMI-8226 leukemia
A549 NSCLC = system: A549 NSCLC
DMS 273 small cell lung = system: DMS 273 small cell lung
SW-620 colon = system: SW-620 colon
M14 melanoma = system: M14 melanoma
U251 CNS = system: U251 CNS
ACHN renal = system: ACHN renal
HT29 colon = system: HT29 colon
UACC-257 melanoma = system: UACC-257 melanoma
M19-MEL melanoma = system: M19-MEL melanoma
SN12C renal = system: SN12C renal
SR leukemia = system: SR leukemia
SK-MEL-28 melanoma = system: SK-MEL-28 melanoma
HOP-62 NSCLC = system: HOP-62 NSCLC
SK-OV-3 ovarian = system: SK-OV-3 ovarian
NCI-H460 lung = system: NCI-H460 lung
NCI-H23 lung = system: NCI-H23 lung
OVCAR-3 ovarian = system: OVCAR-3 ovarian
HCC-2998 colon = system: HCC-2998 colon
COLO 205 colon = system: COLO 205 colon
LOX IMVI melanoma = system: LOX IMVI melanoma
NCI-H226 lung = system: NCI-H226 lung
SF-295 CNS = system: SF-295 CNS
MALME-3M melanoma = system: MALME-3M melanoma
SK-MEL-2 melanoma = system: SK-MEL-2 melanoma
MOLT-4 leukemia = system: MOLT-4 leukemia
HL-60(TB) leukemia = system: HL-60(TB) leukemia
HOP-18 NSCLC = system: HOP-18 NSCLC
IGROV1 ovarian = system: IGROV1 ovarian
SF-268 CNS = system: SF-268 CNS
NCI-H522 lung = system: NCI-H522 lung
LXFL 529 NSCLC = system: LXFL 529 NSCLC
UO-31 renal = system: UO-31 renal
HCT-116 colon = system: HCT-116 colon
OVCAR-4 ovarian = system: OVCAR-4 ovarian
UACC-62 melanoma = system: UACC-62 melanoma
EKVX NSCLC = system: EKVX NSCLC
SNB-78 CNS = system: SNB-78 CNS
SF-539 CNS = system: SF-539 CNS
DLD-1 colon = system: DLD-1 colon
HOP-92 NSCLC = system: HOP-92 NSCLC
A498 renal = system: A498 renal

COc1ccc(C2C(Cl)C(=O)N2n2cnc3ccccc3c2=O)cc1OC (configuration not stated)
TGI (XF 498 CNS): > 100 µM
TGI (KM20L2 colon): > 100 µM
TGI (DMS 114 small cell lung): > 100 µM
TGI (OVCAR-5 ovarian): > 100 µM
TGI (OVCAR-8 ovarian): > 100 µM
TGI (K-562 leukemia): > 100 µM
TGI (TK-10 renal): > 100 µM
TGI (CAKI-1 renal): > 100 µM
TGI (RXF 393 renal): > 100 µM
TGI (HCT-15 colon): > 100 µM
TGI (SK-MEL-5 melanoma): > 100 µM
TGI (786-0 renal): > 100 µM
TGI (KM12 colon): > 100 µM
TGI (SNB-19 CNS): > 100 µM
TGI (SNB-75 CNS): 84.7 µM
TGI (RPMI-8226 leukemia): > 100 µM
TGI (A549 NSCLC): > 100 µM
TGI (DMS 273 small cell lung): > 100 µM
TGI (SW-620 colon): > 100 µM
TGI (M14 melanoma): > 100 µM
TGI (U251 CNS): > 100 µM
TGI (ACHN renal): > 100 µM
TGI (HT29 colon): > 100 µM
TGI (UACC-257 melanoma): > 100 µM
TGI (M19-MEL melanoma): > 100 µM
TGI (SN12C renal): > 100 µM
TGI (SR leukemia): > 100 µM
TGI (SK-MEL-28 melanoma): > 100 µM
TGI (HOP-62 NSCLC): > 100 µM
TGI (SK-OV-3 ovarian): > 100 µM
TGI (NCI-H460 lung): > 100 µM
TGI (NCI-H23 lung): > 100 µM
TGI (OVCAR-3 ovarian): > 100 µM
TGI (HCC-2998 colon): > 100 µM
TGI (COLO 205 colon): > 100 µM
TGI (LOX IMVI melanoma): > 100 µM
TGI (NCI-H226 lung): > 100 µM
TGI (SF-295 CNS): > 100 µM
TGI (MALME-3M melanoma): > 100 µM
TGI (SK-MEL-2 melanoma): > 100 µM
TGI (MOLT-4 leukemia): > 100 µM
TGI (HL-60(TB) leukemia): > 100 µM
TGI (HOP-18 NSCLC): > 100 µM
TGI (IGROV1 ovarian): > 100 µM
TGI (SF-268 CNS): > 100 µM
TGI (NCI-H522 lung): > 100 µM
TGI (LXFL 529 NSCLC): > 100 µM
TGI (UO-31 renal): > 100 µM
TGI (HCT-116 colon): > 100 µM
TGI (OVCAR-4 ovarian): > 100 µM
TGI (UACC-62 melanoma): > 100 µM
TGI (EKVX NSCLC): > 100 µM
TGI (SNB-78 CNS): > 100 µM

COc1cc(C2c3cc4c(cc3[C@@H](Nc3ccc(N(C)C)cc3)[C@H]3COC(=O)C23)OCO4)cc(OC)c1O (some centres not stated)
GI50 (XF 498 CNS): 2.27 µM
TGI (XF 498 CNS): 10.9 µM and 13.3 µM
GI50 (KM20L2 colon): 2.41 µM
TGI (KM20L2 colon): 3.02 µM and 10.7 µM
GI50 (DMS 114 small cell lung): 0.596 µM
TGI (DMS 114 small cell lung): 2.95 µM and 3.2 µM
GI50 (OVCAR-5 ovarian): 1.96 µM
TGI (OVCAR-5 ovarian): 6.21 µM and 16.2 µM
GI50 (OVCAR-8 ovarian): 1.78 µM
TGI (OVCAR-8 ovarian): 7.97 µM and 24.9 µM
GI50 (K-562 leukemia): 2.41 µM
TGI (K-562 leukemia): 75 µM and 36.8 µM
GI50 (TK-10 renal): 8.85 µM
TGI (TK-10 renal): 11.6 µM and 27.2 µM
GI50 (CAKI-1 renal): 0.311 µM
TGI (CAKI-1 renal): 1.03 µM and 3.42 µM
GI50 (SF-539 CNS): 0.572 µM
TGI (SF-539 CNS): 1.62 µM and 2.41 µM
TGI (RXF 393 renal): 4.33 µM
GI50 (HCT-15 colon): 1.82 µM
TGI (HCT-15 colon): 8.16 µM and 11.3 µM
GI50 (SK-MEL-5 melanoma): 1.12 µM
TGI (SK-MEL-5 melanoma): 2.46 µM and 4.52 µM
GI50 (786-0 renal): 0.362 µM
TGI (786-0 renal): 1.37 µM and 4.91 µM
GI50 (KM12 colon): 3.34 µM
TGI (KM12 colon): 4.49 µM and 14.3 µM
GI50 (SNB-19 CNS): 0.441 µM
TGI (SNB-19 CNS): 11.2 µM and 11.8 µM
GI50 (SNB-75 CNS): 0.881 µM
TGI (SNB-75 CNS): 9.26 µM and 10.9 µM
GI50 (DLD-1 colon): 2.19 µM
TGI (DLD-1 colon): 9.22 µM and 12.4 µM
GI50 (A549 NSCLC): 0.173 µM
TGI (A549 NSCLC): 2.02 µM and 3.09 µM
GI50 (DMS 273 small cell lung): 0.202 µM
TGI (DMS 273 small cell lung): 0.877 µM and 2.47 µM
GI50 (SW-620 colon): 1.92 µM
TGI (SW-620 colon): 14 µM and 16.5 µM
GI50 (M14 melanoma): 1.44 µM
TGI (M14 melanoma): 8.61 µM and 16.2 µM
GI50 (U251 CNS): 0.195 µM
TGI (U251 CNS): 1.33 µM and 3.37 µM
GI50 (ACHN renal): 0.0694 µM
TGI (ACHN renal): 0.999 µM and 1.34 µM
GI50 (HT29 colon): 2.46 µM
TGI (HT29 colon): 4.64 µM and 11.3 µM
GI50 (UACC-257 melanoma): 10.2 µM
TGI (UACC-257 melanoma): 11.2 µM and 28.8 µM
GI50 (M19-MEL melanoma): 2.53 µM
TGI (M19-MEL melanoma): 12.3 µM and 16.5 µM
GI50 (SN12C renal): 0.453 µM
TGI (SN12C renal): 2.41 µM and 3.64 µM
TGI (SR leukemia): 0.924 µM
GI50 (SK-MEL-28 melanoma): 12.1 µM
TGI (SK-MEL-28 melanoma): 14.9 µM and 28.2 µM
GI50 (HOP-62 NSCLC): 0.187 µM
TGI (HOP-62 NSCLC): 0.385 µM and 1.23 µM
GI50 (SK-OV-3 ovarian): 0.279 µM
TGI (SK-OV-3 ovarian): 2.23 µM and 5.72 µM
GI50 (HOP-92 NSCLC): 0.807 µM
TGI (HOP-92 NSCLC): 11.4 µM and 17 µM
GI50 (NCI-H460 lung): < 0.0075 µM
TGI (NCI-H460 lung): 1.88 µM and 10.4 µM
GI50 (NCI-H23 lung): 0.388 µM
TGI (NCI-H23 lung): 0.717 µM and 3.18 µM
TGI (OVCAR-3 ovarian): 16.9 µM
GI50 (HCC-2998 colon): 2.36 µM
TGI (HCC-2998 colon): 3.89 µM and 8.71 µM
GI50 (COLO 205 colon): 3.51 µM
TGI (COLO 205 colon): 8.04 µM and 18.9 µM
TGI (LOX IMVI melanoma): 17.6 µM
GI50 (NCI-H226 lung): 0.3 µM
GI50 (SF-295 CNS): 0.223 µM
TGI (SF-295 CNS): 0.483 µM and 1.47 µM
GI50 (MALME-3M melanoma): 1.6 µM
TGI (MALME-3M melanoma): 12.1 µM and 15 µM
GI50 (SK-MEL-2 melanoma): 3.58 µM
TGI (SK-MEL-2 melanoma): 9.12 µM and 12 µM
GI50 (MOLT-4 leukemia): < 0.0075 µM
TGI (HL-60(TB) leukemia): 2.51 µM
TGI (HOP-18 NSCLC): 17 µM
GI50 (IGROV1 ovarian): 4.57 µM
TGI (IGROV1 ovarian): 14.7 µM and 19.9 µM
GI50 (SF-268 CNS): 3.13 µM
TGI (SF-268 CNS): 4.32 µM and 16.6 µM
GI50 (NCI-H522 lung): 1.18 µM
TGI (NCI-H522 lung): 2.29 µM and 2.56 µM
GI50 (LXFL 529 NSCLC): 6.16 µM
TGI (LXFL 529 NSCLC): 11.1 µM and 20.6 µM
GI50 (UO-31 renal): 1.47 µM
TGI (UO-31 renal): 3.27 µM and 6.69 µM
GI50 (HCT-116 colon): 5.52 µM
TGI (HCT-116 colon): 11.7 µM and 20.2 µM
GI50 (OVCAR-4 ovarian): 13 µM
TGI (OVCAR-4 ovarian): 18.7 µM and 25.8 µM
GI50 (A498 renal): 0.643 µM
TGI (A498 renal): 3.42 µM and 10.2 µM
GI50 (UACC-62 melanoma): 0.347 µM
TGI (UACC-62 melanoma): 1.53 µM and 2.28 µM
GI50 (EKVX NSCLC): 2.37 µM
TGI (EKVX NSCLC): 9.57 µM and 9.64 µM
GI50 (SNB-78 CNS): 8.2 µM
TGI (SNB-78 CNS): 22.2 µM and 37.6 µM

— PubChem BioAssay (NCI)
